Results from US11401286B2 (Tetra Discovery Partners, LLC, priority 2012, dated 2022).
Where a name gives a salt, the structure may show the parent alone.

Molecular target: PDE4D7 (Homo sapiens (Human), UniProt Q08499)
Conditions: not given

Sequence of PDE4D7 (Q08499 other isoform, or with tags, fused parts or gaps): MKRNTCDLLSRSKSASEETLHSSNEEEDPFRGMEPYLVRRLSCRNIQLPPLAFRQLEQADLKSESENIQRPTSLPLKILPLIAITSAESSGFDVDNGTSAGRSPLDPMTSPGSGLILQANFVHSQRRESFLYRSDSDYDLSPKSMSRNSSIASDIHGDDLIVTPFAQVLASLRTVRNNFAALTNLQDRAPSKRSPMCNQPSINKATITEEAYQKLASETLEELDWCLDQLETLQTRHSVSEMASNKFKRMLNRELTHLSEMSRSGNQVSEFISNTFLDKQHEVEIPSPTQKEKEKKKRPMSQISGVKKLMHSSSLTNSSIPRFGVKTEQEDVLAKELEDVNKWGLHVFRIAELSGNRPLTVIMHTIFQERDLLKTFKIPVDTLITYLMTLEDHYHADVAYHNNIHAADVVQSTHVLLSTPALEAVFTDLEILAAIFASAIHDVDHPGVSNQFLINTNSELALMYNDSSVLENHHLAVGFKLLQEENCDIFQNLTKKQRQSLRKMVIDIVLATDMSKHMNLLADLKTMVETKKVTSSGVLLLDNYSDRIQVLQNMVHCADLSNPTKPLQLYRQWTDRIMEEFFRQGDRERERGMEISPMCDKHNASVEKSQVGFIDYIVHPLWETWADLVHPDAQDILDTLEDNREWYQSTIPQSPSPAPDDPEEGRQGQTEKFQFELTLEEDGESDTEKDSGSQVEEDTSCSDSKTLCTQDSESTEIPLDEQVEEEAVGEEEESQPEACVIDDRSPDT

| IC50 [nM] | SMILES |
| --- | --- |
| > 1000 | COC(=O)Cc1ccc(Cc2cc(C3CC3)nc(-c3cccc(Cl)c3)n2)cc1 [Example 208, Methyl 2-(4-((2-(3-chlorophenyl)-6-cyclopropylpyrimidin-4-yl)methyl)phenyl)acetate] |

Same assay, conditions: read-out: PDE4D7 IC50; PDE4D7 without asterisk

| SMILES | IC50 [nM] |
| --- | --- |
| OCCc1ccc(Nc2cc(C3CC3)nc(-c3cccc(Cl)c3)n2)cc1 [Example 206, 2-(4-((2-(3-Chlorophenyl)-6-cyclopropylpyrimidin-4-yl)amino)phenyl)ethanol] | < 1000 |
| NC(=O)Cc1ccc(Nc2cc(C3CC3)nc(-c3cccc(Cl)c3)n2)cc1 [Example 207, 2-(4-((2-(3-Chlorophenyl)-6-cyclopropylpyrimidin-4-yl)amino)phenyl)acetamide] | < 1000 |
| OCCc1ccc(Cc2cc(C3CC3)nc(-c3cccc(Cl)c3)n2)cc1 [Example 210, 2-(4-((2-(3-Chlorophenyl)-6-cyclopropylpyrimidin-4-yl)methyl)phenyl)ethanol] | > 1000 |
| CCOC(=O)Cc1ccc(Nc2cc(C3CC3)nc(-c3cccc(Cl)c3)n2)nc1 [Example 211, Ethyl 2-(6-((2-(3-chlorophenyl)-6-cyclopropylpyrimidin-4-yl)amino)pyridin-3-yl)acetate] | > 1000 |
| NC(=O)Cc1ccc(Nc2cc(C3CC3)nc(-c3cccc(Cl)c3)n2)nc1 [Example 212, 2-(6-((2-(3-Chlorophenyl)-6-cyclopropylpyrimidin-4-yl)amino)pyridin-3-yl)acetamide] | > 1000 |
| O=C(O)Cc1ccc(Nc2cc(C3CC3)nc(-c3cccc(Cl)c3)n2)nc1 [Example 213, 2-(6-((2-(3-Chlorophenyl)-6-cyclopropylpyrimidin-4-yl)amino)pyridin-3-yl)acetic acid] | > 1000 |
| OCCc1ccc(Nc2cc(C3CC3)nc(-c3cccc(Cl)c3)n2)nc1 [Example 214] | > 1000 |
| O=C(Cc1ccc(Nc2cc(C3CC3)nc(-c3cccc(Cl)c3)n2)nc1)NCCO [Example 215, 2-(6-((2-(3-Chlorophenyl)-6-cyclopropylpyrimidin-4-yl)amino)pyridin-3-yl)-N-(2-hydroxyethyl)acetamide] | < 1000 |
| OCCc1ccc(Nc2nc(C3CCCC3)nc3c2CCC3)cc1 [Example 217, 2-(4-((2-Cyclopentyl-6,7-dihydro-5H-cyclopenta[d]pyrimidin-4-yl)amino)phenyl)ethanol] | > 1000 |
| FC(F)(F)c1cc(Cc2ccc(Cn3cc(Cl)cn3)cc2)nc(-c2cccc(Cl)c2)n1 [Example 218, 4-(4-((4-Chloro-1H-pyrazol-1-yl)methyl)benzyl)-2-(3-chlorophenyl)-6-(trifluoromethyl)pyrimidine] | > 1000 |
| OCCc1ccc(Nc2cc(C(F)(F)F)nc(-c3cccc(Cl)c3)n2)cc1 [Example 219, 2-(4-((2-(3-Chlorophenyl)-6-(trifluoromethyl)pyrimidin-4-yl)amino)phenyl)ethanol] | > 1000 |
| OCCc1ccc(Nc2nc(OC3CCCC3)nc3c2CCC3)cc1 [Example 233, 2 2-(4-((2-(Cyclopentyloxy)-6,7-dihydro-5H-cyclopenta[d]pyrimidin-4-yl)amino)phenyl)ethanol] | > 1000 |
| OCCc1ccc(Nc2nc(-c3cccc(Cl)c3)nc3c2CCCC3)cc1 [Example 235, 2-(4-((2-(3-Chlorophenyl)-5,6,7,8-tetrahydroquinazolin-4-yl)amino)phenyl)ethanol] | < 1000 |
| NC(=O)Cc1ccc(Nc2cc(N3CCCC3)nc3c2CCC3)cc1 [Example 236, 2-(4-((2-(Pyrrolidin-1-yl)-6,7-dihydro-5H-cyclopenta[b]pyridin-4-yl)amino)phenyl)acetamide hydrochloride] | > 1000 |
| COC(=O)Cc1ccc(Nc2cc(N3CCCC3)nc3c2CCC3)cc1 [Example 237, Methyl 2-(4-((2-(pyrrolidin-1-yl)-6,7-dihydro-5H-cyclopenta[b]pyridin-4-yl)amino)phenyl)acetate hydrochloride] | > 1000 |
| OCCc1ccc(Nc2cc(N3CCNCC3)nc3c2CCC3)cc1 [Example 238, 2-(4-((2-(Piperazin-1-yl)-6,7-dihydro-5H-cyclopenta[b]pyridin-4-yl)amino)phenyl)ethanol hydrochloride] | > 1000 |
| OCCc1ccc(Nc2cc(-c3ccco3)nc3c2CCC3)cc1 [Example 239, 2-(4-((2-(furan-2-yl)-6,7-dihydro-5H-cyclopenta[b]pyridin-4-yl)amino)phenyl)ethanol hydrochloride] | > 1000 |
| NC(=O)Cc1ccc(Nc2cc(-c3ccco3)nc3c2CCC3)cc1 [Example 240, 2-(4-((2-(Furan-2-yl)-6,7-dihydro-5H-cyclopenta[b]pyridin-4-yl)amino)phenyl)acetamide hydrochloride] | > 1000 |
| OCCc1ccc(Nc2cc(-c3ncco3)nc3c2CCC3)cc1 [Example 241, 2-(4-((2-(Oxazol-2-yl)-6,7-dihydro-5H-cyclopenta[b]pyridin-4-yl)amino)phenyl)ethanol] | > 1000 |
| NC(=O)Cc1ccc(Nc2cc(-c3ncco3)nc3c2CCC3)cc1 [Example 242, 2-(4-((2-(Oxazol-2-yl)-6,7-dihydro-5H-cyclopenta[b]pyridin-4-yl)amino)phenyl)acetamide] | > 1000 |

The remaining lines, values ahead:

| IC50 [nM] | SMILES |
| --- | --- |
| > 1000 | O=C(O)Cc1ccc(Cc2cc(C(F)(F)F)nc(OC3CCCC3)n2)cc1 [Example 200, 2-(4-((2-(Cyclopentyloxy)-6-(trifluoromethyl)pyrimidin-4-yl)methyl)phenyl)acetic acid] |
| > 1000 | NC(=O)Cc1ccc(Cc2cc(C(F)(F)F)nc(OC3CCCC3)n2)cc1 [Example 201, 2-(4-((2-(Cyclopentyloxy)-6-(trifluoromethyl)pyrimidin-4-yl)methyl)phenyl)acetamide] |
| > 1000 | OCCc1ccc(Cc2cc(C(F)(F)F)nc(OC3CCCC3)n2)cc1 [Example 202, 2-(4-((2-(Cyclopentyloxy)-6-(trifluoromethyl)pyrimidin-4-yl)methyl)phenyl)ethanol] |
| > 1000 | COC(=O)Cc1ccc(Cc2cc(C(F)(F)F)nc(-c3cccc(Cl)c3)n2)cc1 [Example 203, Methyl 2-(4-((2-(3-chlorophenyl)-6-(trifluoromethyl)pyrimidin-4-yl)methyl)phenyl)acetate] |
| > 1000 | NC(=O)Cc1ccc(Cc2cc(C(F)(F)F)nc(-c3cccc(Cl)c3)n2)cc1 [Example 204, 2-(4-((2-(3-Chlorophenyl)-6-(trifluoromethyl)pyrimidin-4-yl)methyl)phenyl)acetamide] |
| > 1000 | OCCc1ccc(Cc2cc(C(F)(F)F)nc(-c3cccc(Cl)c3)n2)cc1 [Example 205, 2-(4-((2-(3-Chlorophenyl)-6-(trifluoromethyl)pyrimidin-4-yl)methyl)phenyl)ethanol] |
| > 1000 | NC(=O)Cc1ccc(Cc2cc(C3CC3)nc(-c3cccc(Cl)c3)n2)cc1 [Example 209, 2-(4-((2-(3-chlorophenyl)-6-cyclopropylpyrimidin-4-yl)methyl)phenyl)acetamide] |
| < 1000 | NC(=O)Cc1ccc(Nc2nc(C3CCCC3)nc3c2CCC3)cc1 [Example 216, 2-(4-((2-Cyclopentyl-6,7-dihydro-5H-cyclopenta[d]pyrimidin-4-yl)amino)phenyl)acetamide] |
| < 1000 | NC(=O)Cc1ccc(Nc2cc(C(F)(F)F)nc(-c3cccc(Cl)c3)n2)cc1 [Example 220, 2-(4-((2-(3-Chlorophenyl)-6-(trifluoromethyl)pyrimidin-4-yl)amino)phenyl)acetamide] |
| < 1000 | CCc1cc(Nc2ccc(CC(N)=O)cc2)nc(C2CCCC2)n1 [Example 221, 2-(4-((2-Cyclopentyl-6-ethylpyrimidin-4-yl)amino)phenyl)acetamide] |
| < 1000 | CCc1cc(Nc2ccc(CCO)cc2)nc(C2CCCC2)n1 [Example 222, 2-(4-((2-Cyclopentyl-6-ethylpyrimidin-4-yl)amino)phenyl)ethanol] |
| > 1000 | CCc1cc(Cc2ccc(CC(=O)OC)cc2)nc(C2CCCC2)n1 [Example 223, Methyl 2-(4-((2-cyclopentyl-6-ethylpyrimidin-4-yl)methyl)phenyl)acetate] |
| > 1000 | CCc1cc(Cc2ccc(CC(=O)O)cc2)nc(C2CCCC2)n1 [Example 224, 2-(4-((2-Cyclopentyl-6-ethylpyrimidin-4-yl)methyl)phenyl)acetic acid] |
| > 1000 | CCc1cc(Cc2ccc(CCO)cc2)nc(C2CCCC2)n1 [Example 225, 2-(4-((2-Cyclopentyl-6-ethylpyrimidin-4-yl)methyl)phenyl)ethanol] |
| < 1000 | CCc1cc(Cc2ccc(CC(N)=O)cc2)nc(C2CCCC2)n1 [Example 226, 2-(4-((2-Cyclopentyl-6-ethylpyrimidin-4-yl)methyl)phenyl)acetamide] |
| < 1000 | OCCc1ccc(Nc2cc(C(F)(F)F)nc(C3CCCC3)n2)cc1 [Example 227, 2-(4-((2-Cyclopentyl-6-(trifluoromethyl)pyrimidin-4-yl)amino)phenyl)ethanol] |
| < 1000 | NC(=O)Cc1ccc(Nc2cc(C(F)(F)F)nc(C3CCCC3)n2)cc1 [Example 228, 2-(4-((2-Cyclopentyl-6-(trifluoromethyl)pyrimidin-4-yl)amino)phenyl)acetamide] |
| > 1000 | O=C(O)Cc1ccc(Cc2cc(C(F)(F)F)nc(C3CCCC3)n2)cc1 [Example 229, 2-(4-((2-Cyclopentyl-6-(trifluoromethyl)pyrimidin-4-yl)methyl)phenyl)acetic acid] |
| > 1000 | NC(=O)Cc1ccc(Cc2cc(C(F)(F)F)nc(C3CCCC3)n2)cc1 [Example 230, 2-(4-((2-Cyclopentyl-6-(trifluoromethyl)pyrimidin-4-yl)methyl)phenyl)acetamide] |
| > 1000 | OCCc1ccc(Cc2cc(C(F)(F)F)nc(C3CCCC3)n2)cc1 [Example 231, 2-(4-((2-Cyclopentyl-6-(trifluoromethyl)pyrimidin-4-yl)methyl)phenyl)ethanol] |
| > 1000 | NC(=O)Cc1ccc(Nc2nc(OC3CCCC3)nc3c2CCC3)cc1 [Example 232, 2-(4-((2-(Cyclopentyloxy)-6,7-dihydro-5H-cyclopenta[d]pyrimidin-4-yl)amino)phenyl)acetamide] |
| < 1000 | NC(=O)Cc1ccc(Nc2nc(-c3cccc(Cl)c3)nc3c2CCCC3)cc1 [Example 234, 2-(4-((2-(3-Chlorophenyl)-5,6,7,8-tetrahydroquinazolin-4-yl)amino)phenyl)acetamide] |
